Drawing on PubChem BioAssay (NCI), this text covers GI50 and TGI for 13 molecules.

Test systems include DU-145 prostate; PC-3 prostate; MDA-MB-231 breast; HS 578T breast.
Common to all, as to assay: NCI anticancer screen, dose series, 48 h

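Exposure lasted 48 hours, with cells grown in 96-well plates and compounds tested at five concentrations. GI50 = concentration required for 50% inhibition of growth. At the TGI there is no net growth.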

Take `C[C@@H]1C=C2C(=O)O[C@@H]3CC[C@H](C1)[C@]23O`: the GI50 in the test on DU-145 prostate was 2.14 µM; in the test with PC-3 prostate, 3.68 µM; in the test on MDA-MB-231 breast, 3.96 µM; in the test with HS 578T breast it was 12.7 µM. Also, the TGI in the test with DU-145 prostate is 5.78 µM; in the test with PC-3 prostate, 14.9 µM; in the test with MDA-MB-231 breast it was 17.4 µM; in the test with HS 578T breast, > 100 µM.

For `C[C@H]1[C@H](C)CC[C@]2(C(=O)O)CC[C@]3(C)C(=CC[C@@H]4[C@@]5(C)C/C(=C/c6ccco6)C(=O)C(C)(C)[C@@H]5CC[C@]43C)[C@H]12`, the GI50 in the test on DU-145 prostate was 6.41 µM; in the test on PC-3 prostate, 2.89 µM; in the test on MDA-MB-231 breast it was 6.72 µM; in the test on HS 578T breast it was 11.6 µM. Further, the TGI with DU-145 prostate was 30.9 µM; in the test on PC-3 prostate, 13.3 µM; in the test on MDA-MB-231 breast, 24.1 µM; in the test with HS 578T breast, > 100 µM.

Turning to `NCCC(O)(P(=O)(O)O)P(=O)(O)O`, the GI50 in the test with DU-145 prostate, in the test on MDA-MB-231 breast and with HS 578T breast was > 100 µM throughout. The TGI in the test on DU-145 prostate, in the test on MDA-MB-231 breast and with HS 578T breast was > 100 µM each time.

As for `CCn1cnc2c(Nc3cccc(Cl)c3)nc(N[C@@H]3CCCC[C@@H]3N)nc21`, the GI50 was 1.01 µM with DU-145 prostate, 1.3 µM with PC-3 prostate, 1.83 µM in the test on MDA-MB-231 breast and 2.36 µM with HS 578T breast. The TGI in the test on DU-145 prostate was found to be 3.15 µM; in the test with PC-3 prostate, 3.36 µM; in the test on MDA-MB-231 breast it was 5.37 µM; in the test on HS 578T breast, 7.99 µM.

As to `Cn1cc(C2=C(c3cn(CCN)c4ccccc34)C(=O)NC2=O)c2ccccc21`, the GI50 is 8.63 µM with DU-145 prostate, 5.14 µM in the test with PC-3 prostate, 6 µM in the test on MDA-MB-231 breast and 4.32 µM in the test on HS 578T breast. The TGI in the test on DU-145 prostate was > 25 µM; with PC-3 prostate, > 19.7 µM; in the test on MDA-MB-231 breast it was 19.2 µM; in the test with HS 578T breast it was 20.2 µM.

Regarding `C=C1C(=O)O[C@H]2[C@H]1CC/C(COC(=O)NCc1c[nH]c3ccc(Cl)cc13)=C\CC[C@@]1(C)O[C@@H]21`, the GI50 is 1.2 µM in the test with DU-145 prostate, 1.52 µM in the test on PC-3 prostate, 1.66 µM in the test with MDA-MB-231 breast and 2.45 µM in the test with HS 578T breast. Moreover, the TGI in the test with DU-145 prostate was found to be 2.65 µM; with PC-3 prostate it was 3.08 µM; in the test with MDA-MB-231 breast, 3.3 µM; in the test on HS 578T breast it was 6.82 µM.

Regarding `Cc1nc(NC(=O)CCCN2C(=O)c3cccc4cccc(c34)C2=O)sc1C(=O)Nc1cc(C(=O)NCCCN(C)C)n(C)c1`, the GI50 in the test on DU-145 prostate, in the test with PC-3 prostate, in the test with MDA-MB-231 breast and with HS 578T breast was > 100 µM each time. In addition, the TGI in the test with DU-145 prostate, in the test on PC-3 prostate, in the test on MDA-MB-231 breast and in the test with HS 578T breast was > 100 µM each time.

Turning to `COc1ccccc1CNCCCN1C(=O)c2ccc3c4c(ccc(c24)C1=O)C(=O)N(CCCNCCCN)C3=O`, the GI50 was 0.63 µM in the test with DU-145 prostate, 0.653 µM in the test with PC-3 prostate, 1.41 µM in the test with MDA-MB-231 breast and 1.2 µM in the test on HS 578T breast. Further, the TGI in the test with DU-145 prostate amounted to 2.39 µM; with PC-3 prostate, 4.61 µM; with MDA-MB-231 breast, 9.72 µM; in the test on HS 578T breast it was 5.82 µM.

For `Cc1ccc(C)c(-c2csc(Nc3ccc(C)c(C)c3)n2)c1`, the GI50 in the test on DU-145 prostate was > 100 µM; in the test on PC-3 prostate, 7 µM; in the test with MDA-MB-231 breast it was > 100 µM; in the test with HS 578T breast, 30.6 µM. For the same molecule, the TGI with DU-145 prostate, in the test on PC-3 prostate, in the test with MDA-MB-231 breast and in the test on HS 578T breast was > 100 µM in each case.

Regarding `COc1ccc(NC(=O)c2sc3nc(C)c(C(O)c4ccccc4)cc3c2N)cc1` (stereo not drawn), the GI50 is 3.21 µM in the test with DU-145 prostate, 3.31 µM in the test on PC-3 prostate, 2.96 µM in the test with MDA-MB-231 breast and 1.73 µM with HS 578T breast. The TGI is > 100 µM in the test with DU-145 prostate, > 100 µM with PC-3 prostate, > 100 µM with MDA-MB-231 breast and 6.86 µM in the test with HS 578T breast.

With `COc1cc(C(=O)c2cc3c(cc2C)OCO3)cc(OC)c1OC`, the figures for the GI50 in the test with PC-3 prostate, in the test with MDA-MB-231 breast and with HS 578T breast were 0.141 µM, 0.147 µM and 0.174 µM, respectively. For the same molecule, the TGI in the test on PC-3 prostate, in the test with MDA-MB-231 breast and with HS 578T breast was > 100 µM in each case.

On to `N#Cc1ccnc(N2C(=O)CC[C@H]2C(=O)N(c2cncc(F)c2)[C@H](C(=O)NC2CC(F)(F)C2)c2ccccc2Cl)c1`, for which the GI50 in the test on DU-145 prostate was 82.5 µM; in the test on PC-3 prostate it was > 100 µM; in the test with MDA-MB-231 breast it was 50.7 µM; in the test on HS 578T breast, 99.6 µM. Besides, the TGI in the test on DU-145 prostate, in the test with PC-3 prostate, in the test on MDA-MB-231 breast and with HS 578T breast was > 100 µM in each case.

As to `Nc1ccc(/C=N/Nc2ccnc3c(N)cccc23)c2cccnc12`, the GI50 in the test on DU-145 prostate is 1.68 µM; in the test with MDA-MB-231 breast it was 1.6 µM; in the test with HS 578T breast it was 2.04 µM. The TGI in the test with DU-145 prostate amounted to 3.13 µM; in the test on MDA-MB-231 breast, 3.15 µM; in the test on HS 578T breast, 4.62 µM.
